Where two headings read alike, the source gives them in different places.
Columns and labels:
[1] = test system: U87MG cells; assay: Cellular assay: inhibition of 2-HG production in U87MG cells (LC-MS, 48 hours); assay type: cell-based; settings: Homo sapiens, U-87 MG, 2-HG in media by LC-MS
Procedure: Cells (HT1080 or U87MG) were grown in T125 flasks in DMEM containing 10% FBS, 1× penicillin/streptomycin and 500 ug/mL G418 (present in U87MG cells only). They were harvested by trypsin and seeded into 96 well white bottom plates at a density of 5000 cell/well in 100 ul/well in DMEM with 10% FBS. No cells were placed in columns 1 and 12. Cells were incubated overnight at 37° C. in 5% CO2. The next day test compounds were made up at 2× the final concentration and 100 ul were added to each cell well. The final concentration of DMSO was 0.2% and the DMSO control wells were plated in row G. The plates were then placed in the incubator for 48 hours. At 48 hours, 100 ul of media was removed from each well and analyzed by LC-MS for 2-HG concentrations. The cell plate was placed back in the incubator for another 24 hours. At 72 hours post compound addition, 10 mL/plate of Promega Cell Titer Glo reagent was thawed and mixed. The cell plate was removed from the incubator and allowed to equilibrate to room temperature. Then 100 ul of Promega Cell Titer Glo reagent was added to each well of media. The cell plate was then placed on an orbital shaker for 10 minutes and then allowed to sit at room temperature for 20 minutes. The plate was then read for luminescence with an integration time of 500 ms.

[2] = molecular target: IDH1 R132H (Homo sapiens, UniProt O75874, R132H); assay: In vitro assay for IDH1 R132H inhibitors (NADPH/aKG, resazurin detection); assay type: biochemical; settings: 0.2 μg/ml IDH1 R132H, 50 minutes at room temperature
IDH1 R132H, sequence (O75874 whole entry R132H): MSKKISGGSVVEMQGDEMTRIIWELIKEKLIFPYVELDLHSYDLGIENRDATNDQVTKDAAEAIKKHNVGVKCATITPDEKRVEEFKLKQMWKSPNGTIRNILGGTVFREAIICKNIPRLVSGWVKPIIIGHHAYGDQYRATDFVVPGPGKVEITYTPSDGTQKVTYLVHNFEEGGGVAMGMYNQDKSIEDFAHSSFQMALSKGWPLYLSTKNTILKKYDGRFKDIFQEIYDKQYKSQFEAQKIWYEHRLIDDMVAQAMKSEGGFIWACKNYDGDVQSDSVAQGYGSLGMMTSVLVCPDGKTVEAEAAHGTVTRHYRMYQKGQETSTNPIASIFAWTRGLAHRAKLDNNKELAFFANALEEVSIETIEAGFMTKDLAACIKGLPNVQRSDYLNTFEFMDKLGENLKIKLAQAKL
Procedure: Assays were conducted in a volume of 76 μl assay buffer (150 mM NaCl, 10 mM MgCl2, 20 mM Tris pH 7.5, 0.03% bovine serum albumin) as follows in a standard 384-well plate: To 25 ul of substrate mix (8 uM NADPH, 2 mM aKG), 1 μl of test compound was added in DMSO. The plate was centrifuged briefly, and then 25 μl of enzyme mix was added (0.2 μg/ml IDH1 R132H) followed by a brief centrifugation and shake at 100 RPM. The reaction was incubated for 50 minutes at room temperature, then 25 μl of detection mix (30 μM resazurin, […]) was added and the mixture further incubated for 5 minutes at room temperature. The conversion of resazurin to resorufin was detected by fluorescent spectroscopy at Ex544 Em590 c/o 590.
The compounds of Formula I set forth in Table 1 and the compounds set forth in Table 2 were tested in this assay and the results set forth below in Table 4A and 4B.

[3] = Table 4B, read-out: IC50, IDH1 R132H Inhibition
[4] = Table 4A, read-out: IC50 (uM), IDH1 R132H Inhibition

| SMILES | IC50 [1] [nM] | IC50 [2, 3] [µM] | IC50 [2, 4] [µM] |
| --- | --- | --- | --- |
| Cc1ccccc1C(C(=O)NC1CCCCC1)N(C(=O)CNCCc1ccccc1)c1cccc(F)c1 (centres unmarked) [Compound 154] | 1000 to 5000 | 0.1 to 1 |  |
| Cc1ccccc1C(C(=O)NC1CCCCC1)N(C(=O)Cc1cscn1)c1cccc(F)c1 (centres unmarked) [Compound 158] | 250 to 1000 | 0.1 to 1 |  |
| Cc1ccccc1C(C(=O)NC1CCCCC1)N(Cc1cccs1)C(=O)OCc1ccccc1 (centres unmarked) [Compound 390] | > 5000 | 1 to 10 |  |
| Cc1ccccc1C(C(=O)NC1CCCCC1)N(C(=O)CN(C)c1ccccc1)c1cccc(F)c1 (centres unmarked) [Compound 161] | 250 to 1000 | ≤ 0.1 |  |
| O=C(NC1CCCCC1)[C@@H](c1ccccc1)N(C(=O)Cc1cccs1)c1cccc(F)c1 [Compound 386] | ≤ 250 | ≤ 0.1 |  |
| Cc1ccccc1C(C(=O)NC1CCCCC1)N(C(=O)Cc1c[nH]c2ccccc12)c1cccc(F)c1 (centres unmarked) [Compound 126] | ≤ 250 | ≤ 0.1 |  |
| CCC(=O)N1CCCC[C@H]1C(=O)N(c1cccc(F)c1)[C@H](C(=O)NC1CCCCC1)c1ccccc1C [Compound 350] | 1000 to 5000 | 0.1 to 1 |  |
| Cc1ccccc1C(C(=O)NC1CCCCC1)N(C(=O)CNCc1cccnc1)c1cccc(F)c1 (centres unmarked) [Compound 174] | 1000 to 5000 | 0.1 to 1 |  |
| Cc1ccccc1C(C(=O)NC1CCOCC1)N(C(=O)CN1CCCc2ccccc21)c1cccc(F)c1 (centres unmarked) [Compound 179] | 1000 to 5000 | 0.1 to 1 |  |
| Cc1ccccc1C(C(=O)NC1CC2CCC1C2)N(C(=O)Cc1cccs1)c1cccc(F)c1 (centres unmarked) [Compound 186] | 250 to 1000 | ≤ 0.1 |  |
| Cc1ccccc1C(C(=O)NC1CCCCC1)N(Cc1cccs1)C(=O)NCc1ccccc1 (centres unmarked) [Compound 388] | > 5000 | 0.1 to 1 |  |
| Cc1ccccc1C(C(=O)NC1CCCCC1)N(C(=O)COc1cccc(F)c1)c1cccc(F)c1 (centres unmarked) [Compound 189] | > 5000 | 0.1 to 1 |  |
| Cc1ccccc1C(C(=O)NC1CCCCC1)N(C(=O)Cn1cnc2ccccc21)c1cccc(F)c1 (centres unmarked) [Compound 135] | 250 to 1000 | ≤ 0.1 |  |
| Cc1ccccc1C(C(=O)NC1CCCCC1)N(C(=O)CNC1COC1)c1cccc(F)c1 (centres unmarked) [Compound 170] | 1000 to 5000 | 0.1 to 1 |  |
| Cc1ccccc1C(C(=O)NC1CCCCC1)N(Cc1cccs1)C(=O)CN1Cc2ccccc2C1 (centres unmarked) [Compound 187] | 1000 to 5000 | 0.1 to 1 |  |
| Cc1ccccc1C(C(=O)NC1CCCCC1)N(Cc1cccs1)C(=O)CN(C)c1ccccc1 (centres unmarked) [Compound 182] | 1000 to 5000 | 0.1 to 1 |  |
| Cc1ccccc1C(C(=O)NC1CCCCC1)N(C(=O)CN1Cc2ccccc2C1)c1cccc(F)c1 (centres unmarked) [Compound 188] | 250 to 1000 | 0.1 to 1 |  |
| O=C(NC1CCCCC1)C(c1ccccn1)N(C(=O)Cc1cccs1)c1cccc(F)c1 (centres unmarked) [Compound 81] |  |  | 1 to 10 |
| Cc1ccccc1C(C(=O)NC1CCCCC1)N(C(=O)CNc1ccccc1)c1cccc(F)c1 (centres unmarked) [Compound 155] |  | ≤ 0.1 |  |
| CNC(=O)N1CCC[C@@H]1C(=O)N(c1cccc(F)c1)[C@H](C(=O)NC1CCCCC1)c1ccccc1C [Compound 375] |  | 0.1 to 1 |  |
| O=C(NC1CCCCC1)C(C1CCCCC1)N(C(=O)Cc1cccs1)c1cccc(F)c1 (centres unmarked) [Compound 63] |  |  | 1 to 10 |
| O=C(NC1CCCCC1)C(c1c(F)ccc(F)c1Cl)N(C(=O)Cc1cccs1)c1cccc(F)c1 (centres unmarked) [Compound 105] |  | 0.1 to 1 |  |
| O=C(Cc1cccs1)N(c1cccc(F)c1)C1(C(=O)NC2CCCC2)CCCCC1 [Compound 24] |  |  | 1 to 10 |
| O=C(NC1CCCCC1)C(c1ccccc1)N(C(=O)c1ccccn1)c1cccc(F)c1 (centres unmarked) [Compound 55] |  |  | 1 to 10 |
| O=C(NC1CCCCC1)C(c1cccc(O)c1)N(C(=O)Cc1cccs1)c1cccc(F)c1 (centres unmarked) [Compound 91] |  |  | 0.1 to 1 |
| Cc1ccccc1C(C(=O)NC1CCCCC1)N(C(=O)c1ccccn1)c1cccc(F)c1 (centres unmarked) [Compound 32] |  |  | 1 to 10 |
| O=C(NC1CCCCC1)C(c1ccccc1Cl)N(C(=O)c1ccccn1)c1ccccc1 (centres unmarked) [Compound 4] |  |  | 0.1 to 1 |
| Cc1ccccc1C(C(=O)NC1CCCCC1)N(C(=O)OCc1ccccc1)c1ccccc1 (centres unmarked) [Compound 391] |  | 0.1 to 1 |  |
| CCOc1ccccc1C(C(=O)NC1CCCCC1)N(C(=O)Cc1cccs1)c1cccc(F)c1 (centres unmarked) [Compound 64] |  |  | 1 to 10 |
| Cc1ccccc1C(C(=O)NC1CCCC1)N(C(=O)CCl)c1ccccc1F (centres unmarked) [Compound 75] |  |  | 1 to 10 |

— US20130184222A1, “[…] ACTIVE COMPOSITIONS AND THEIR METHODS OF USE” (AGIOS PHARMACEUTICALS, INC, priority 2010, published 2013)
